Assay results reported in the supplement of paper PMC11451515.

System: NOMO1
Assay: cell viability relative to DMSO control; higher = less cytotoxic
Details: 48 h
In short: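 Viability, reported as a per-plate percentage of DMSO wells with cell-free wells as background, came from CellTiter-Glo One luminescence. Reading took place after 48 h at 37°C. Before that, NOMO1 or SEM (500 cells/well) or P12-Ichikawa (1000 cells/well) leukemia cells, adapted for at least four passages in each medium, were seeded in 1536-well plates (5 μl) and pin-dosed with library compounds in DMSO, 47 μM to 0.79 nM over 11 threefold points.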

[1] = HPLM + 10% dialyzed FBS, 0.000781 µM
[2] = HPLM + 10% dialyzed FBS, 0.00234 µM
[3] = HPLM + 10% dialyzed FBS, 0.00702 µM
[4] = HPLM + 10% dialyzed FBS, 0.0211 µM
[5] = HPLM + 10% dialyzed FBS, 0.0632 µM
[6] = HPLM + 10% dialyzed FBS, 0.19 µM
[7] = HPLM + 10% dialyzed FBS, 0.569 µM
[8] = HPLM + 10% dialyzed FBS, 1.71 µM
[9] = HPLM + 10% dialyzed FBS, 5.12 µM
[10] = HPLM + 10% dialyzed FBS, 15.4 µM
[11] = HPLM + 10% dialyzed FBS, 46.1 µM
[12] = RPMI 5 mM glucose + 10% FBS, 0.000781 µM
[13] = RPMI 5 mM glucose + 10% FBS, 0.00234 µM
[14] = RPMI 5 mM glucose + 10% FBS, 0.00702 µM
[15] = RPMI 5 mM glucose + 10% FBS, 0.0211 µM
[16] = RPMI 5 mM glucose + 10% FBS, 0.0632 µM
[17] = RPMI 5 mM glucose + 10% FBS, 0.19 µM
[18] = RPMI 5 mM glucose + 10% FBS, 0.569 µM
[19] = RPMI 5 mM glucose + 10% FBS, 1.71 µM
[20] = RPMI 5 mM glucose + 10% FBS, 5.12 µM
[21] = RPMI 5 mM glucose + 10% FBS, 15.4 µM
[22] = RPMI 5 mM glucose + 10% FBS, 46.1 µM
[23] = RPMI 5 mM glucose + 10% dialyzed FBS, 0.000781 µM
[24] = RPMI 5 mM glucose + 10% dialyzed FBS, 0.00234 µM
[25] = RPMI 5 mM glucose + 10% dialyzed FBS, 0.00702 µM
[26] = RPMI 5 mM glucose + 10% dialyzed FBS, 0.0211 µM
[27] = RPMI 5 mM glucose + 10% dialyzed FBS, 0.0632 µM
[28] = RPMI 5 mM glucose + 10% dialyzed FBS, 0.19 µM
[29] = RPMI 5 mM glucose + 10% dialyzed FBS, 0.569 µM
[30] = RPMI 5 mM glucose + 10% dialyzed FBS, 1.71 µM
[31] = RPMI 5 mM glucose + 10% dialyzed FBS, 5.12 µM
[32] = RPMI 5 mM glucose + 10% dialyzed FBS, 15.4 µM
[33] = RPMI 5 mM glucose + 10% dialyzed FBS, 46.1 µM

`CCN1CCCC1CNC(=O)c1cc([S+](N)(=O)[O-])ccc1OC` (stereo unspecified) gave a cell viability [1] of 104%, a cell viability [2] of 117% and a cell viability [3] of 127%. The cell viability [4] was 127%, the cell viability [5] was 142% and the cell viability [6] was 128%. The cell viability [7] was 111%, the cell viability [8] was 117% and the cell viability [9] was 140%. The cell viability [10] was 121%, the cell viability [11] was 78% and the cell viability [12] was 120%. It also gave a cell viability [13] of 113%, a cell viability [14] of 102% and a cell viability [15] of 103%. It also gave a cell viability [16] of 123%, a cell viability [17] of 106% and a cell viability [18] of 118%. The cell viability [19] was 120%, the cell viability [20] was 119% and the cell viability [21] was 117%. It also gave a cell viability [22] of 105%, a cell viability [23] of 111% and a cell viability [24] of 126%. It also gave a cell viability [25] of 106%, a cell viability [26] of 125% and a cell viability [27] of 115%. For the same compound, the cell viability [28] was 139%, the cell viability [29] was 131% and the cell viability [30] was 134%. The cell viability [31] was 122%, the cell viability [32] was 126% and the cell viability [33] was 129%.

Work on `CCOC(=O)\C1=C\[C@@H](OC(CC)CC)[C@H](NC(C)=O)[C@@H](N)C1` yielded a cell viability [1] of 90.4%, a cell viability [2] of 86.1% and a cell viability [3] of 94.3%. It also gave a cell viability [4] of 98.9%, a cell viability [5] of 93.7% and a cell viability [6] of 107%. It also gave a cell viability [7] of 92.5%, a cell viability [8] of 93.1% and a cell viability [9] of 84%. For the same compound, the cell viability [10] was 86.9%, the cell viability [11] was 86.4% and the cell viability [12] was 91.9%. The cell viability [13] was 92.5%, the cell viability [14] was 94.9% and the cell viability [15] was 91.9%. The cell viability [16] was 95.1%, the cell viability [17] was 98.9% and the cell viability [18] was 95.7%. It also gave a cell viability [19] of 102%, a cell viability [20] of 88.9% and a cell viability [21] of 103%. For the same compound, the cell viability [22] was 82.7%, the cell viability [23] was 84.4% and the cell viability [24] was 93.4%. For the same compound, the cell viability [25] was 102%, the cell viability [26] was 87.4% and the cell viability [27] was 94.9%. For the same compound, the cell viability [28] was 106%, the cell viability [29] was 93.6% and the cell viability [30] was 91.7%. It also gave a cell viability [31] of 99.3%, a cell viability [32] of 103% and a cell viability [33] of 87.1%.

In the case of `OC1=CC2=C(C(=C1)O)C(=O)\C(=C(/O2)C3=CC(=C(O)C=C3)O)O`, the cell viability [1] is reported as 97.5%, the cell viability [2] is reported as 104% and the cell viability [3] is reported as 102%. It also gave a cell viability [4] of 112%, a cell viability [5] of 125% and a cell viability [6] of 117%. It also gave a cell viability [7] of 116%, a cell viability [8] of 99.7% and a cell viability [9] of 118%. The cell viability [10] was 110%, the cell viability [11] was 109% and the cell viability [12] was 98.1%. For the same compound, the cell viability [13] was 105%, the cell viability [14] was 115% and the cell viability [15] was 90.8%. The cell viability [16] was 110%, the cell viability [17] was 108% and the cell viability [18] was 106%. For the same compound, the cell viability [19] was 110%, the cell viability [20] was 95.4% and the cell viability [21] was 90.5%. For the same compound, the cell viability [22] was 97.9%, the cell viability [23] was 98.2% and the cell viability [24] was 98%. For the same compound, the cell viability [25] was 109%, the cell viability [26] was 107% and the cell viability [27] was 104%. For the same compound, the cell viability [28] was 118%, the cell viability [29] was 110% and the cell viability [30] was 104%. It also gave a cell viability [31] of 107%, a cell viability [32] of 106% and a cell viability [33] of 102%.

For `COC(=O)\C1=C\CCN(C)C1`, the cell viability [1] was 125%, the cell viability [2] was 115% and the cell viability [3] was 111%. It also gave a cell viability [4] of 102%, a cell viability [5] of 101% and a cell viability [6] of 124%. It also gave a cell viability [7] of 135%, a cell viability [8] of 115% and a cell viability [9] of 113%. For the same compound, the cell viability [10] was 112%, the cell viability [11] was 109% and the cell viability [12] was 84.7%. For the same compound, the cell viability [13] was 94.8%, the cell viability [14] was 96.5% and the cell viability [15] was 91.3%. For the same compound, the cell viability [16] was 85.3%, the cell viability [17] was 94% and the cell viability [18] was 110%. It also gave a cell viability [19] of 97.4%, a cell viability [20] of 93.6% and a cell viability [21] of 87%. The cell viability [22] was 99%, the cell viability [23] was 95.7% and the cell viability [24] was 96.3%. For the same compound, the cell viability [25] was 98.9%, the cell viability [26] was 95.7% and the cell viability [27] was 107%. The cell viability [28] was 97.4%, the cell viability [29] was 92.5% and the cell viability [30] was 97.6%. For the same compound, the cell viability [31] was 88.9%, the cell viability [32] was 102% and the cell viability [33] was 103%.

`CCN1CCN(C(=O)Cc2ccc(Nc3ncc(F)c(Nc4ccc(C(=O)Nc5ccccc5Cl)cc4)n3)cc2)CC1` showed a cell viability [1] of 93.9%, a cell viability [2] of 119% and a cell viability [3] of 112%. The cell viability [4] was 115%, the cell viability [5] was 112% and the cell viability [6] was 114%. For the same compound, the cell viability [7] was 109%, the cell viability [8] was 109% and the cell viability [9] was 62.6%. It also gave a cell viability [10] of 62.4%, a cell viability [11] of 49.1% and a cell viability [12] of 99.6%. The cell viability [13] was 98.1%, the cell viability [14] was 98% and the cell viability [15] was 92.7%. For the same compound, the cell viability [16] was 111%, the cell viability [17] was 121% and the cell viability [18] was 101%. It also gave a cell viability [19] of 90.7%, a cell viability [20] of 81.2% and a cell viability [21] of 47.1%. It also gave a cell viability [22] of 59.4%, a cell viability [23] of 97.5% and a cell viability [24] of 109%. The cell viability [25] was 104%, the cell viability [26] was 117% and the cell viability [27] was 107%. For the same compound, the cell viability [28] was 103%, the cell viability [29] was 114% and the cell viability [30] was 103%. For the same compound, the cell viability [31] was 64.9%, the cell viability [32] was 55.8% and the cell viability [33] was 49%.

In the case of `OC[C@H]1O[C@@H](Oc2cc(O)cc(/C=C/c3ccc(O)cc3)c2)[C@H](O)[C@@H](O)[C@@H]1O`, the cell viability [1] is reported as 85.6%, the cell viability [2] is reported as 116% and the cell viability [3] is reported as 107%. For the same compound, the cell viability [4] was 128%, the cell viability [5] was 115% and the cell viability [6] was 111%. The cell viability [7] was 99.4%, the cell viability [8] was 74.8% and the cell viability [9] was 63.1%. For the same compound, the cell viability [10] was 58.8%, the cell viability [11] was 45% and the cell viability [12] was 102%. For the same compound, the cell viability [13] was 99.2%, the cell viability [14] was 111% and the cell viability [15] was 121%. For the same compound, the cell viability [16] was 104%, the cell viability [17] was 106% and the cell viability [18] was 98.1%. The cell viability [19] was 91.5%, the cell viability [20] was 84.2% and the cell viability [21] was 63.2%. It also gave a cell viability [22] of 63.3%, a cell viability [23] of 85.6% and a cell viability [24] of 92.4%. The cell viability [25] was 88.3%, the cell viability [26] was 98.4% and the cell viability [27] was 109%. It also gave a cell viability [28] of 108%, a cell viability [29] of 103% and a cell viability [30] of 84.7%. It also gave a cell viability [31] of 51.9%, a cell viability [32] of 52.7% and a cell viability [33] of 76.5%.

`CCOc1cc(CC(=O)N[C@@H](CC(C)C)c2ccccc2N2CCCCC2)ccc1C(=O)O` was tested, and the cell viability [1] was 117%, the cell viability [2] was 120% and the cell viability [3] was 139%. For the same compound, the cell viability [4] was 138%, the cell viability [5] was 141% and the cell viability [6] was 126%. The cell viability [7] was 46.7%, the cell viability [8] was 43.4% and the cell viability [9] was 37%. It also gave a cell viability [10] of 41.1% and a cell viability [11] of 34.7%.

In the case of `COc1cc(C)c(Sc2cnc(NC(=O)c3ccc(CNC(C)C(C)C)cc3)s2)cc1C(=O)N1CCN(C(C)=O)CC1` (stereo unspecified), the cell viability [12] is reported as 117%, the cell viability [13] is reported as 119% and the cell viability [14] is reported as 128%. For the same compound, the cell viability [15] was 131%, the cell viability [16] was 117% and the cell viability [17] was 126%. It also gave a cell viability [18] of 134%, a cell viability [19] of 108% and a cell viability [20] of 105%. For the same compound, the cell viability [21] was 107% and the cell viability [22] was 126%.

Work on `CC(C)(C)[C@H](NC(=O)c1ccc(N)c(Cl)c1)C(=O)N1CCC[C@H]1C(=O)N[C@H](C#N)CC(=O)O` yielded a cell viability [12] of 113%, a cell viability [13] of 126% and a cell viability [14] of 112%. It also gave a cell viability [15] of 118%, a cell viability [16] of 120% and a cell viability [17] of 126%. It also gave a cell viability [18] of 116%, a cell viability [19] of 30% and a cell viability [20] of 23%. It also gave a cell viability [21] of 22.7% and a cell viability [22] of 20.6%.
